# In US20260103465A1, “GLYCOGEN SYNTHASE KINASE 3 INHIBITORS AND USES THEREOF” (The Broad Institute, Inc., priority 2023, published 2026):
# Where two headings read alike, the source gives them in different places.
# Assays:
# [1] = tested on: MDR1-MDCK cell monolayers; test: MDR1/MDCK permeability assay; type: in vitro ADME; details: for MDCK Permeability (MDR1-MDCK); Mean; Papp(A-B) (10^−6 cm/s): A to B; for MDCK Permeability (MDR1-MDCK); Mean; Papp(B-A) (10^−6 cm/s): B to A; for MDCK Permeability (MDR1-MDCK); Mean; P. Ratio(B-A/A-B) Efflux Ratio / MIDCK Permeability (MDR1-MDCK); Mean; P. Ratio(B-A/A-B) Efflux Ratio: Papp B-A/A-B
# Summary of the method: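 Confluent MDR1-MDCK monolayers (7–11 days old), compound dosed at 5 μM in HBSSg (≤1% DMSO) apically or basolaterally, pH 7.4 both sides, receiver with 1% BSA, N=2. Both sides sampled at 120 min and quantified by LC-MS/MS; Papp in each direction, efflux ratio B-A/A-B and recovery reported.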
# [2] = molecular target: T1, GSK3b (GST-full length GSK3b) (Homo sapiens, UniProt P49841); test: GSK3b TR-FRET kinase inhibition assay; type: biochemical
# T1 construct: GST-full length GSK3b: [SignalChem G08-9G]; purchased SignalChem G08-9G
# T1 sequence (P49841 whole entry): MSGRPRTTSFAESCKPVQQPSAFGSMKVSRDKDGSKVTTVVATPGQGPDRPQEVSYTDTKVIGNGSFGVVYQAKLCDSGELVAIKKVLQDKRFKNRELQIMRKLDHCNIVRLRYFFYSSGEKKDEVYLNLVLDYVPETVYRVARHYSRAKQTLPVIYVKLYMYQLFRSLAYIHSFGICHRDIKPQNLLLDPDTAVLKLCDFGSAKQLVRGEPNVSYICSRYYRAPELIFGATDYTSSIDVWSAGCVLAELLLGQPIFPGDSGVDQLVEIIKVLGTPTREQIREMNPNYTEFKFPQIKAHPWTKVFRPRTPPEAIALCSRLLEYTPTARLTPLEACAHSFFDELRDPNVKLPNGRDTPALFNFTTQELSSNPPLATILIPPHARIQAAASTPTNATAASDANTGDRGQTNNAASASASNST
# Summary of the method: (§1)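 IC50 derived from normalized 665/615 TR-FRET signal (Tb anti-pSer641 antibody, streptavidin-d2), read after EDTA stop. Reaction: 1 nM GST-full-length enzyme, 30 min compound pre-incubation, 100 min at ambient temperature in Tris pH 7.5 with 1% DMSO, 200 nM biotinylated primed glycogen synthase peptide, ATP 2 μM to 1 mM.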
# [3] = Human liver microsomal stability; type: in vitro ADME; details: human liver microsomes
# Summary of the method: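 Compound incubated at 1 µM with human liver microsomes for 60 min at 37 °C, in duplicate. Percent remaining derived from compound level at 60 min relative to 0 min. Controls: microsomes with NADPH and no compound; compound with microsomes lacking NADPH.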
# [4] = molecular target: T2, GSK3a (GST-full length GSK3a) (Homo sapiens, UniProt P49840); test: GSK3a TR-FRET kinase inhibition assay; type: biochemical
# T2 construct: GST-full length GSK3a [SignalChem G08-10G]; purchased SignalChem G08-10G
# T2 sequence (P49840 whole entry): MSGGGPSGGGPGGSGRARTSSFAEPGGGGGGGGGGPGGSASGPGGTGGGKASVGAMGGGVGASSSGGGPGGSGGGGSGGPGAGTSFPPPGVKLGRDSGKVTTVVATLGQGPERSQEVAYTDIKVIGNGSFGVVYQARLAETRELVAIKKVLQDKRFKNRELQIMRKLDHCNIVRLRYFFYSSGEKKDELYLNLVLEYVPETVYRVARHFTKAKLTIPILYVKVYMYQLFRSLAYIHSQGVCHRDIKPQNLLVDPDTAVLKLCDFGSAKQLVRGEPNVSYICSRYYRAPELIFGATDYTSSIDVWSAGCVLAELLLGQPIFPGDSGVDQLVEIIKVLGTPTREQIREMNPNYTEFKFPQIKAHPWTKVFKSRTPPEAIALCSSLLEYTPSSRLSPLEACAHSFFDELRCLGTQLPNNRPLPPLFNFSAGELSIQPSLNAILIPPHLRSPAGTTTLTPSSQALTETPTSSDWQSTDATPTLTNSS
# Summary of the method: as §1
# [5] = 2 μM ATP, read-out: GSK3β TR-FRET 2 μM ATP GMean IC50
# [6] = 4 μM ATP, read-out: GSK3α TR-FRET 4 μM ATP GMean IC50
# [7] = 10 μM ATP, read-out: GSK3b 10 μM ATP Average IC50
# [8] = 100 μM ATP, read-out: GSK3b 100 μM ATP Average IC50
# [9] = 1 mM ATP, Table 3, read-out: GSK3b TR-FRET 1 mM ATP Average IC50
# [10] = 10 μM ATP, read-out: GSK3a 10 μM ATP Average IC50
# [11] = 100 μM ATP, read-out: GSK3a 100 μM ATP Average IC50
# [12] = 1 mM ATP, Table 3, read-out: GSK3a TR-FRET 1 mM ATP Average IC50
Compound,MDCK Permeability (MDR1-MDCK); Mean; Papp(A-B) (10^−6 cm/s) ([1]; Table 4),MDCK Permeability (MDR1-MDCK); Mean; Papp(B-A) (10^−6 cm/s) ([1]; Table 4),MDCK Permeability (MDR1-MDCK); Mean; P. Ratio(B-A/A-B) Efflux Ratio ([1]; Table 4),"IC50 [2, 5]",Microsome Stability (Human) (DMPK_BIIB); Mean; in vitro t1/2 ([3]; Table 4),"IC50 [4, 6]",MDCK Permeability (MDR1-MDCK); Mean; Papp(A-B) (10^−6 cm/s) ([1]; Table 3),MDCK Permeability (MDR1-MDCK); Mean; Papp(B-A) (10^−6 cm/s) ([1]; Table 3),MIDCK Permeability (MDR1-MDCK); Mean; P. Ratio(B-A/A-B) Efflux Ratio ([1]; Table 3),"IC50 [2, 7]","IC50 [2, 8]","IC50 [2, 9]",Microsome Stability (Human) (DMPK_BIIB); Mean; in vitro t1/2 ([3]; Table 3),"IC50 [4, 10]","IC50 [4, 11]","IC50 [4, 12]"
"CCC1(c2cccc(O)c2)C2=C(CC(C)(C)CC2=O)Nc2ncc(F)cc21 (single isomer, unassigned) [Compound 1010A]",0.60 10^−6 cm/s,28 10^−6 cm/s,51,> 5000 nM,6.1 min,> 5000 nM,–,–,–,–,–,–,–,–,–,–
"CCC1(c2cccc(-c3cc(C)nn3C)c2)C2=C(CC(C)(C)CC2=O)Nc2ncccc21 (single isomer, unassigned) [Compound 1024B]",2.8 10^−6 cm/s,31 10^−6 cm/s,11,100 to 1000 nM,4.3 min,≤ 100 nM,–,–,–,–,–,–,–,–,–,–
"CCC1(c2cccc(-c3cccnc3)c2)C2=C(CC(C)(C)CC2=O)Nc2ncccc21 (single isomer, unassigned) [Compound 1015A]",4.7 10^−6 cm/s,44 10^−6 cm/s,9.5,≤ 100 nM,2.8 min,≤ 100 nM,–,–,–,–,–,–,–,–,–,–
"CCC1(c2ccccc2)C2=C(CC(C)(C)CC2=O)Nc2ncccc21 (single isomer, unassigned) [Compound 102A]",–,–,–,–,–,–,22 10^−6 cm/s,19 10^−6 cm/s,0.87,≤ 100 nM,100 to 1000 nM,1000 to 5000 nM,14 min,≤ 100 nM,100 to 1000 nM,1000 to 5000 nM
"CCC1(c2cccc(-c3ccnc4c3CCC4)c2)C2=C(CC(C)(C)CC2=O)Nc2ncccc21 (single isomer, unassigned) [Compound 1034B]",7.6 10^−6 cm/s,25 10^−6 cm/s,3.3,≤ 100 nM,4.1 min,≤ 100 nM,–,–,–,–,–,–,–,–,–,–
"CCC1(c2cccc(O)c2)C2=C(CC(C)(C)CC2=O)Nc2ncc(F)cc21 (single isomer, unassigned) [Compound 1010B]",0.80 10^−6 cm/s,39 10^−6 cm/s,48,≤ 100 nM,11 min,≤ 100 nM,–,–,–,–,–,–,–,–,–,–

# The next lines start with the values.
MDCK Permeability (MDR1-MDCK); Mean; Papp(A-B) (10^−6 cm/s) ([1]; Table 4),MDCK Permeability (MDR1-MDCK); Mean; Papp(B-A) (10^−6 cm/s) ([1]; Table 4),MDCK Permeability (MDR1-MDCK); Mean; P. Ratio(B-A/A-B) Efflux Ratio ([1]; Table 4),"IC50 [2, 5]",Microsome Stability (Human) (DMPK_BIIB); Mean; in vitro t1/2 ([3]; Table 4),"IC50 [4, 6]",MDCK Permeability (MDR1-MDCK); Mean; Papp(A-B) (10^−6 cm/s) ([1]; Table 3),MDCK Permeability (MDR1-MDCK); Mean; Papp(B-A) (10^−6 cm/s) ([1]; Table 3),MIDCK Permeability (MDR1-MDCK); Mean; P. Ratio(B-A/A-B) Efflux Ratio ([1]; Table 3),"IC50 [2, 7]","IC50 [2, 8]","IC50 [2, 9]",Microsome Stability (Human) (DMPK_BIIB); Mean; in vitro t1/2 ([3]; Table 3),"IC50 [4, 10]","IC50 [4, 11]","IC50 [4, 12]",Compound
–,–,–,> 5000 nM,–,1000 to 5000 nM,20 10^−6 cm/s,17 10^−6 cm/s,0.93,≤ 100 nM,≤ 100 nM,100 to 1000 nM,1.9 min,≤ 100 nM,≤ 100 nM,100 to 1000 nM,"CCC1(c2cccc(-c3c(C)nn(C)c3C)c2)C2=C(CC(C)(C)CC2=O)Nc2ncccc21 (single isomer, unassigned) [Compound 150A]"
–,–,–,1000 to 5000 nM,–,100 to 1000 nM,12 10^−6 cm/s,6.9 10^−6 cm/s,0.59,–,–,–,10 min,–,–,–,"CCC1(c2cccc(-c3c(F)cncc3OC)c2)C2=C(CC(C)(C)CC2=O)Nc2ncc(F)cc21 (single isomer, unassigned) [Compound 161A]"
